Experimental data reported in ChEMBL document CHEMBL3992542, “Synthesis of cholesteryl doxorubicin and its anti-cancer activity” (Bioorg Med Chem Lett, 2017).
The source made the active and inactive calls. The rule behind the calls is not given here.

How the values were obtained:
A549 [1] = assay: Cytotoxicity against human A549 cells assessed as decrease in cell viability at 10 uM treated for 2 hrs measured after 48 hrs by MTT assay; type: functional, cell-based
MDA-MB-231 [2] = assay: Cytotoxicity against human MDA-MB-231 cells assessed as decrease in cell viability at 10 uM treated for 2 hrs measured after 48 hrs by MTT assay; type: functional, cell-based
MCF7 [3] = assay: Cytotoxicity against human MCF7 cells assessed as decrease in cell viability at 5 uM treated for 2 hrs measured after 48 hrs by MTT assay; type: functional, cell-based
HeLa [4] = assay: Cytotoxicity against human HeLa cells assessed as decrease in cell viability at 5 uM treated for 2 hrs measured after 48 hrs by MTT assay; type: functional, cell-based
A549 [5] = assay: Cytotoxicity against human A549 cells assessed as decrease in cell viability treated for 2 hrs measured after 48 hrs by MTT assay; type: functional, cell-based
MDA-MB-231 [6] = assay: Cytotoxicity against human MDA-MB-231 cells assessed as decrease in cell viability treated for 2 hrs measured after 48 hrs by MTT assay; type: functional, cell-based
MCF7 [7] = assay: Cytotoxicity against human MCF7 cells assessed as decrease in cell viability treated for 2 hrs measured after 48 hrs by MTT assay; type: functional, cell-based
HeLa [8] = assay: Cytotoxicity against human HeLa cells assessed as decrease in cell viability treated for 2 hrs measured after 48 hrs by MTT assay; type: functional, cell-based
[9] = Drug uptake in human MDA-MB-231 cells at 5 uM after 24 hrs by flow cytometric analysis; type: ADME, cell-based; details: mda-mb-231, 24 h
[10] = Drug uptake in human HeLa cells at 5 uM after 24 hrs by flow cytometric analysis; type: ADME, cell-based
[11] = Drug uptake in cytoplasm of human MDA-MB-231 cells at 5 uM after 2 hrs by fluorescence microscopic method; type: ADME
[12] = Drug uptake in cytoplasm of human HeLa cells at 5 uM after 2 hrs by fluorescence microscopic method; type: ADME, cell-based
[13] = Drug uptake in cytoplasm of human A549 cells at 5 uM after 2 hrs by fluorescence microscopic method; type: ADME, cell-based; details: a549, 2 h
[14] = Drug uptake in nucleus of human MDA-MB-231 cells at 5 uM after 24 hrs by fluorescence microscopic method; type: ADME
[15] = Drug uptake in nucleus of human HeLa cells at 5 uM after 24 hrs by fluorescence microscopic method; type: ADME, cell-based
[16] = Drug uptake in nucleus of human A549 cells at 5 uM after 24 hrs by fluorescence microscopic method; type: ADME, cell-based; details: a549, 24 h
[17] = Drug uptake in human MDA-MB-231 cells at 5 uM after 2 hrs by flow cytometric analysis; type: ADME, cell-based; details: mda-mb-231, 2 h
[18] = Drug uptake in human HeLa cells at 5 uM after 2 hrs by flow cytometric analysis; type: ADME, cell-based
[19] = Drug uptake in nucleus of human MDA-MB-231 cells at 5 uM after 2 hrs by fluorescence microscopic method; type: ADME
[20] = Drug uptake in nucleus of human HeLa cells at 5 uM after 2 hrs by fluorescence microscopic method; type: ADME, cell-based
[21] = Drug uptake in nucleus of human A549 cells at 5 uM after 2 hrs by fluorescence microscopic method; type: ADME, cell-based; details: a549, 2 h

Row | Drug uptake [9] | Drug uptake [10] | Drug uptake [14] | Drug uptake [15] | Drug uptake [16] | Compound | Activity (A549 [1]) | Activity (MDA-MB-231 [2]) | Activity (MCF7 [3]) | Activity (HeLa [4]) | IC50 (A549 [5]) | IC50 (MDA-MB-231 [6]) | IC50 (MCF7 [7]) | IC50 (HeLa [8]) | other results
1 | Not Active | Not Active |  |  |  | COc1cccc2c1C(=O)c1c(O)c3c(c(O)c1C2=O)C[C@@](O)(C(=O)COC(=O)CCC(=O)NCCCNC(=O)O[C@H]1CC[C@@]2(C)C(=CC[C@H]4[C@@H]5CC[C@H]([C@H](C)CCCC(C)C)[C@@]5(C)CC[C@@H]42)C1)C[C@@H]3O[C@H]1C[C@H](N)[C@H](O)[C@H](C)O1 | Active | Active | Active | Active | 8.03 µM | 16.4 µM | 9.69 µM | 8.03 µM | 
2 | Active | Active | Active | Active | Active | COc1cccc2c1C(=O)c1c(O)c3c(c(O)c1C2=O)C[C@@](O)(C(=O)COC(=O)CCC(=O)NCCCO[C@H]1CC[C@@]2(C)C(=CC[C@H]4[C@@H]5CC[C@H]([C@H](C)CCCC(C)C)[C@@]5(C)CC[C@@H]42)C1)C[C@@H]3O[C@H]1C[C@H](N)[C@H](O)[C@H](C)O1 | Active | Active | Active | Active | 11.2 µM | 21.6 µM | 9.94 µM | 27.9 µM | Drug uptake [11]: Active; Drug uptake [12]: Active; Drug uptake [13]: Active
3 |  |  |  |  |  | COc1cccc2c1C(=O)c1c(O)c3c(c(O)c1C2=O)C[C@@](O)(C(=O)CO)C[C@@H]3O[C@H]1C[C@H](NC(=O)CCC(=O)NCCCNC(=O)O[C@H]2CC[C@@]3(C)C(=CC[C@H]4[C@@H]5CC[C@H]([C@H](C)CCCC(C)C)[C@@]5(C)CC[C@@H]43)C2)[C@H](O)[C@H](C)O1 | inactive | inactive | inactive | inactive |  |  |  |  | 
4 | Not Active | Not Active | Not Active | Not Active | Not Active | COc1cccc2c1C(=O)c1c(O)c3c(c(O)c1C2=O)C[C@@](O)(C(=O)CO)C[C@@H]3O[C@H]1C[C@H](N)[C@H](O)[C@H](C)O1 [DOXORUBICIN] |  |  |  |  | 11.6 µM | 14.7 µM | 4.39 µM | 7.18 µM | Drug uptake [17]: Active; Drug uptake [18]: Active; Drug uptake [19]: Active; Drug uptake [20]: Active; Drug uptake [21]: Active
5 |  |  |  |  |  | COc1cccc2c1C(=O)c1c(O)c3c(c(O)c1C2=O)C[C@@](O)(C(=O)CO)C[C@@H]3O[C@H]1C[C@H](NC(=O)CCC(=O)NCCCO[C@H]2CC[C@@]3(C)C(=CC[C@H]4[C@@H]5CC[C@H]([C@H](C)CCCC(C)C)[C@@]5(C)CC[C@@H]43)C2)[C@H](O)[C@H](C)O1 | inactive | inactive | inactive | inactive |  |  |  |  | 
